Test results: patent US20240325394A1, “SALT AND CRYSTAL FORM OF NITROGEN-CONTAINING HETEROCYCLIC DERIVATIVE, PREPARATION METHOD THEREFOR AND APPLICATION THEREOF” (SHANGHAI HANSOH BIOMEDICAL CO., LTD., priority 2020, published 2024)
Read-outs that look alike come from different tables or passages of the source.

Assays:
[1] = Plasma stability, mouse plasma; type: in vitro ADME
Method in brief: (§1)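 Compound from a 10 μM working solution in 100 mM phosphate buffer was incubated at 37°C in anticoagulated plasma from each species, with propantheline as positive control. Aliquots taken at 0, 15, 30, 60, 90 and 120 min were quenched in acetonitrile with internal standard. Remaining compound was quantified by LC-MS/MS (positive ESI, MRM).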

[2] = Pharmacokinetics in mice (plasma) after oral administration; type: in vivo, Balb/c mice
Experimental: 5 g of Hydroxyethyl cellulose (HEC, CMC-Na, viscosity: 800-1200 Cps) was weighed, dissolved in 1000 mL of purified water, and 10 g of Tween 80 was added. The mixture was mixed well to form a clear solution.
The compounds of the embodiments were weighed and added into 4-mL glass bottles, respectively, 2.4 mL of the solution was added, and ultrasound was performed for 10 minutes to obtain a colorless clear solution with a concentration of 1 mg/mL.
Balb/C mice, males; PO, after overnight fasting, respectively, at a dose of 10 mg/kg, administered in a volume of 10 mL/kg.
Blood samples were collected before administration and 0.083 h, 0.25 h, 0.5 h, 1 h, 2 h, 4 h, 6 h and 8 h after administration, the blood was placed in EDTA-2K tube, centrifuged at 4° C. 6000 rpm for 6 min to separate plasma, and stored at −80° C.; food was consumed 4 hours after drug administration.

[3] = target: T1, CYP450 2C9 (Homo sapiens, UniProt P11712); assay: CYP enzyme single point inhibition test, human liver microsomes, 2C9; type: in vitro ADME; settings: single point method
T1 construct: from tissue; host or cells: human liver microsomes
Experimental: (§2) Using human liver microsomal incubation system, the inhibition of CYP450 enzyme subtypes by compounds was rapidly predicted by single point method.
(§3) 2.5 mM NADPH: 100 mM phosphate buffer was added to 4.165 mg of NADPH (reduced nicotinamide adenine dinucleotide phosphate) to 2 mL. 0.25 mg/mL microsome: 4 mL of 100 mM phosphate buffer was added to 50 μL of 20 mg/mL microsome and mixed well.
(§4) The embodiment compound to be tested was weighed and diluted to 10 mM with DMSO and then diluted to 100 µM with 100 mM phosphate buffer.
(§5) • 1. In a 96-well plate, 40 μL of liver microsomes, 10 μL of substrate, 10 μL of compound to be tested were pre-incubated for 3 min. • 2. 40 μL of NADPH was added. • 3. 300 μL of acetonitrile termination solution containing internal standard was added at 20 min. • 4. Centrifugal injection.

[4] = target: T2, CYP450 2C19 (Homo sapiens, UniProt P33261); assay: CYP enzyme single point inhibition test, human liver microsomes, 2C19; type: in vitro ADME; settings: single point method
T2 construct: from tissue; host or cells: human liver microsomes
Experimental: as §2, §3, §4, §5

[5] = Plasma stability, dog plasma; type: in vitro ADME; settings: dog plasma, 37° C.
Method in brief: as §1

[6] = target: T3, CYP450 3A4 (Homo sapiens, UniProt P08684); assay: CYP enzyme single point inhibition test, human liver microsomes, 3A4 (3A4-M, 3A4-T); type: in vitro ADME; settings: single point method
T3 construct: from tissue; host or cells: human liver microsomes
Experimental: as §2, §3, §4, §5

[7] = tested on: NCI-H358 cells (KRAS G12C mutant); assay: Inhibition of NCI-H358 cell proliferation (CellTiter-Glo, 72 h); type: cell-based, human
Experimental: (§6) When NCI-H358 or Mia PaCa-2 cells were cultured to the appropriate fusion level, the NCI-H358 or Mia PaCa-2 cells were collected, and the cells were adjusted to the appropriate cell concentration using a complete medium, and the cell suspension was spread in a 96-well plate, 90 μL per well, and placed in a 37° C., 5% CO2 incubator overnight; and compound solutions of different concentrations were prepared using DMSO and culture medium; and a solvent control was set, the compound solution was added to a 96-well plate, 10 μL per well, at 37° C. in a 5% CO2 incubator for 72 hours; CellTiter-Glo solution was added thereto and the mixture was mixed well by shaking, incubated for 10 min in the dark, and read by BioTek Synergy H1 microplate reader.
(§7) The luminescence signal values were used to calculate the inhibition rate, the concentration and the inhibition rate were fitted to a nonlinear regression curve using Graphpad Prism software, then the IC50 value was obtained.

[8] = tested on: Mia PaCa-2 cells (KRAS G12C mutant); assay: Inhibition of Mia PaCa-2 cell proliferation (CellTiter-Glo, 72 h); type: cell-based, human
Experimental: as §6, §7

[9] = tested on: plasma protein; assay: Plasma protein binding rate test, dog plasma; type: in vitro ADME; settings: 5 μM, 37° C., 6 hours
Experimental: The embodiment compound was prepared into a 1 mM solution A with DMSO.
Solution A was added to the plasma solution and prepared into a 5 μM solution B.
• 1) 200 μL of solution B was added into the membrane. • 2) 350 μL of PBS was added to the outside of the membrane. • 3) Incubating in a 37° C. water bath for 6 hours. • 4) The samples were processed for dilution and detected by mass spectrometry.
• instrument: Shimadzu LC-20 AD; • chromatographic column: phenomenex Gemiu® C18 (50*4.6 mm, 5 UM particle size); • mobile phase: A: Acetonitrile, B: 0.1% formic acid solution 0-0.5 min: 5% A→90% A, 2.0-2.1 min: 90% A→5% A; flow rate: 0.8 mL/min; running time: 5.0 min; injection volume: 5 μL.
• instrument: API4000 Liquid Chromatography-Mass Spectrometry, AB, USA; • the ion source was electrospray ionization source (ESI); • the temperature of dry gas (N2) was 500° C.; • electrospray voltage was 5500V; • the detection method was positive ion detection; • the scanning mode was selective response monitoring (MRM); the scanning time was 0.1 s.

[10] = 3A4-M, read-out: IC50 (μM) 3A4-M
[11] = 3A4-T, read-out: IC50 (μM) 3A4-T
[12] = Balb/c mice, PO 10 mg/kg, plasma

T3 sequence (P08684 whole entry): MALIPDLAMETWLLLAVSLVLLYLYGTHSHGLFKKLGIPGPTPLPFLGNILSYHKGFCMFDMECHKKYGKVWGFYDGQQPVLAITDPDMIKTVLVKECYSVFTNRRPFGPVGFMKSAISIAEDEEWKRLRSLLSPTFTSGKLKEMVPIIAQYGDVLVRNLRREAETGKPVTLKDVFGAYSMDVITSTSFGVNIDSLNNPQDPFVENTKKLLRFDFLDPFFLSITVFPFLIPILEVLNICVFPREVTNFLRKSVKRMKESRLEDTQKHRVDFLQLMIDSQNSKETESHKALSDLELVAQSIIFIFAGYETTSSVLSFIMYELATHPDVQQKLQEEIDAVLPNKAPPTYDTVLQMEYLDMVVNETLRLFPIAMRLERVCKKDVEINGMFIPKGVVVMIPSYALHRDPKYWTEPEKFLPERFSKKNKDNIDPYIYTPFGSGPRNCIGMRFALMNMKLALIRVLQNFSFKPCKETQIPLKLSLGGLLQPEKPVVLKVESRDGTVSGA
T1 sequence (P11712 whole entry): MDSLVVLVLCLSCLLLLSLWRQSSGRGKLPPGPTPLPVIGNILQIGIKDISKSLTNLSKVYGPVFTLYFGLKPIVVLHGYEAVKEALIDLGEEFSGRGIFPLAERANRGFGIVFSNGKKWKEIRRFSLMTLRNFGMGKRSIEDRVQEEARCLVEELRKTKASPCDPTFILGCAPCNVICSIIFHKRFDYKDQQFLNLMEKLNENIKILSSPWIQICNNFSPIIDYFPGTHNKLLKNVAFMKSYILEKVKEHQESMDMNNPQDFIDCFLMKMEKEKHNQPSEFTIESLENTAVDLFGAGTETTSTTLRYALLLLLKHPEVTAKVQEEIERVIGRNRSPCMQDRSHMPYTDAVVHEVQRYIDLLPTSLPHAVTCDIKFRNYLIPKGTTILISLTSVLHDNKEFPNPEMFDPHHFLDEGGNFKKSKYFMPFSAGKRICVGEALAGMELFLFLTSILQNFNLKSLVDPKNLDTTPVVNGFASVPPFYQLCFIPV
T2 sequence (P33261 whole entry): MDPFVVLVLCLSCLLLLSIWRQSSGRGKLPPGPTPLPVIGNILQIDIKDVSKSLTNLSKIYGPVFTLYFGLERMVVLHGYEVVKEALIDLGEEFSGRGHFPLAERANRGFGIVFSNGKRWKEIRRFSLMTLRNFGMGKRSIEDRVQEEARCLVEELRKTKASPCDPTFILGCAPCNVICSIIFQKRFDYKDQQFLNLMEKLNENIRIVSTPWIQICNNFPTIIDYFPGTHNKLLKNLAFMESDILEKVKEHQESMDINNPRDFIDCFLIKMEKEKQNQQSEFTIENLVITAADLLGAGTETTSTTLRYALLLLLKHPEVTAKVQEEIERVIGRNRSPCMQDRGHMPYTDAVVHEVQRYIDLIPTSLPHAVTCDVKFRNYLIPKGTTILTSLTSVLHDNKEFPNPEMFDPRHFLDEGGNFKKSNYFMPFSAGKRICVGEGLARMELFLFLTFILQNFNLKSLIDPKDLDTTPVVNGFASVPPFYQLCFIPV

Compound: C=CC(=O)N1C[C@H](C)N(c2nc(=O)n(-c3c(SC)ccnc3C(C)C)c3nc(-c4c(N)ccc(Cl)c4F)c(Cl)cc23)C[C@H]1C (atropisomer, axis not shown) [Embodiment 13-1, P-4-((2S,5R)-4-Acryloyl-2,5-dimethylpiperazin-1-yl)-7-(6-amino-3-chloro-2-fluorophenyl)-6-chloro-1-(2-isopropyl-4-(methylthio)pyridin-3-yl)pyrido[2,3-d]pyrimidin-2(1H)-one]
- Residual rate (%) 0 min ([1]; mouse, 0.5 μM): 100.00%
- Residual rate (%) 15 min ([1]; mouse, 0.5 μM): 100.58%
- Residual rate (%) 30 min ([1]; mouse, 0.5 μM): 99.52%
- Residual rate (%) 60 min ([1]; mouse, 0.5 μM): 99.64%
- Residual rate (%) 120 min ([1]; mouse, 0.5 μM): 92.32%
- half-life ([2]; male, Balb/c, mouse, in vivo, po, 10 mg/kg): 60 min
- IC50 [3]: 58.8 µM
- IC50 [4]: 28.8 µM
- Residual rate (%) 0 min [5]: 100.00%
- Residual rate (%) 15 min [5]: 97.71%
- Residual rate (%) 30 min [5]: 96.32%
- Residual rate (%) 60 min [5]: 94.86%
- Residual rate (%) 120 min [5]: 92.49%
- IC50 [6, 10]: 4.7 µM
- IC50 [6, 11]: 9.1 µM

Compound: P-4-((2S,5R)-4-acryloyl-2,5-dimethylpiperazin-1-yl)-6-fluoro-7-(2-fluoro-6-hydroxyphenyl)-1-(2-isopropyl-4-(methylthio)pyridin-3-yl)pyrido[2,3-d]pyrimidin-2(1H)-one [Embodiment 2-1]
- Residual rate (%) 0 min ([1]; mouse plasma, 37° C.): 100.00%
- Residual rate (%) 15 min ([1]; mouse plasma, 37° C.): 102.67%
- Residual rate (%) 30 min ([1]; mouse plasma, 37° C.): 98.51%
- Residual rate (%) 60 min ([1]; mouse plasma, 37° C.): 95.49%
- Residual rate (%) 120 min ([1]; mouse plasma, 37° C.): 84.58%
- IC50 [7]: 0.035 µM
- AUC0-∞ [2, 12]: 1373 ng·h/mL
- Cmax [2, 12]: 1823 ng/mL
- MRT [2, 12]: 42 min
- T1/2 [2, 12]: 36 min
- Tmax [2, 12]: 15 min
- IC50 [3]: 84.6 µM
- IC50 [8]: 0.029 µM
- IC50 [4]: > 100 µM
- Residual rate (%) 0 min [5]: 100.00%
- Residual rate (%) 15 min [5]: 97.87%
- Residual rate (%) 30 min [5]: 96.23%
- Residual rate (%) 60 min [5]: 92.42%
- Residual rate (%) 120 min [5]: 85.48%
- IC50 [6, 10]: 19 µM
- IC50 [6, 11]: > 100 µM
- Plasma protein binding rate, Dog [9]: 82.6
